How the values were obtained:
[1] = target: T1, Ectonucleotide pyrophosphatase/phosphodiesterase family member 1 (Homo sapiens, UniProt P22413); assay: Competitive inhibition of human NPP1 transfected in HEK293 cells using p-Nph-5'-TMP as substrate preincubated for 3 mins followed by substrate addition measured after 15 mins by Cornish-Bowden plot analysis
T1 sequence (P22413 whole entry): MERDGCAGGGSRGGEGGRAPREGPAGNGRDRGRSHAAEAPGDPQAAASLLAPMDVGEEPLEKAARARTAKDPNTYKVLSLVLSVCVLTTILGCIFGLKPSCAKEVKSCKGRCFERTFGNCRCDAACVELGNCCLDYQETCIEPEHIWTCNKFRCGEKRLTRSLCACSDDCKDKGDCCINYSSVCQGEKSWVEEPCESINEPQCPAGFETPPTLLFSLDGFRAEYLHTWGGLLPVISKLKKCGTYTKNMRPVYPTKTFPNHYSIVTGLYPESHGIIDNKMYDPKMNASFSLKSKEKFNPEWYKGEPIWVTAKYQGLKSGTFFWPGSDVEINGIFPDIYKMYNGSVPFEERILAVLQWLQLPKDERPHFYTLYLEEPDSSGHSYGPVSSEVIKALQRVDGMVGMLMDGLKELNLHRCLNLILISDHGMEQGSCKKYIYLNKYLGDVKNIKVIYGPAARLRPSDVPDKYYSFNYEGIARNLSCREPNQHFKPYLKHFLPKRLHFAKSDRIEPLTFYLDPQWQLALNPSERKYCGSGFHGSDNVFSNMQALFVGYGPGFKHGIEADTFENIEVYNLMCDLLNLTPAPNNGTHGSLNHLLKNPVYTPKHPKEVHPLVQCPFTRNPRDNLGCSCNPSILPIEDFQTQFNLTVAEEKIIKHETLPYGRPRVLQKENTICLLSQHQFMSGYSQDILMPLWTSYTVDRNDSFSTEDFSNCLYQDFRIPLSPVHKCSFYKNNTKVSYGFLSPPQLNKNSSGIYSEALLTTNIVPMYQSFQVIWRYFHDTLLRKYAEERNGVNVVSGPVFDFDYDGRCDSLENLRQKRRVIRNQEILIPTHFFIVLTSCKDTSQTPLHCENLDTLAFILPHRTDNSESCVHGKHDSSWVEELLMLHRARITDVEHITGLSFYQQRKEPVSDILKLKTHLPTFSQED

[2] = target: T1, Ectonucleotide pyrophosphatase/phosphodiesterase family member 1; assay: Inhibition of human recombinant NPP1 expressed in insect SF9 cells using ATP as substrate preincubated with substrate followed by protein addition and subsequent incubation for 30 mins by capillary electrophoresis
[3] = target: T2, Ectonucleotide pyrophosphatase/phosphodiesterase family member 1 (Homo sapiens) (UniProt P22413); assay: Inhibition of human recombinant NPP1 expressed in insect SF9 cells using ATP as substrate at 10 uM preincubated with substrate followed by protein addition and subsequent incubation for 30 mins by capillary electrophoresis
T2 sequence (whole entry): T1 sequence (P22413 whole entry)

[4] = target: T1, Ectonucleotide pyrophosphatase/phosphodiesterase family member 1; assay: Competitive inhibition of human NPP1 expressed in African green monkey COS7 cells using ATP as substrate after 20 mins by Michaelis-Menten plot analysis; assay type: cell-based, COS-7
[5] = Retention time of the compound in MgCl2/CaCl2/CHES buffer at pH 9 by LC-MS analysis; assay type: physicochemical
[6] = Drug level in MgCl2/CaCl2/CHES buffer treated with (Z)-2-((5-iodofuran-2-yl)methylene)benzo[d]thiazolo[3,2-a]imidazol-3(2H)-one at pH 9 after 24 hrs by LC-MS analysis; assay type: physicochemical; settings: pH 9, 24 h

SMILES	Ki [2] [µM]	inhibition [3] [%]	also measured
CCN(CC)c1ncnc2c1ncn2[C@@H]1O[C@H](COP(=O)(O)OP(=O)(O)C(Br)(Br)P(=O)(O)O)[C@@H](O)[C@H]1O	–	–	Ki [1]: 12 µM
O=c1/c(=C/c2cccc(OCc3ccccc3)c2)sc2nc3ccccc3n12	> 10	10	–
O=c1/c(=C/c2ccc(Sc3ccccc3)o2)sc2nc3ccccc3n12	≥ 10	40	–
O=c1/c(=C/c2ccc(-c3ccccc3)o2)sc2nc3ccccc3n12	≥ 10	48	–
O=c1/c(=C/C=C/c2ccccc2)sc2nc3ccccc3n12	> 10	24	–
O=c1/c(=C/c2ccc(I)cc2)sc2nc3ccccc3n12	> 10	31	–
O=c1/c(=C/c2cccc(Cc3ccccc3)c2)sc2nc3ccccc3n12	> 10	11	–
O=c1[nH]c2ccccc2cc1/C=c1/sc2nc3ccccc3n2c1=O	> 10	30	–
O=c1/c(=C/c2ccc(N3CCOCC3)cc2)sc2nc3ccccc3n12	8.91	–	–
Cc1ccc(/C=c2\sc3nc4ccccc4n3c2=O)cc1	> 10	28	–
O=c1/c(=C\c2ccc3ccccc3c2)sc2nc3ccccc3n12	> 10	24	–
Nc1c(S(=O)(=O)O)cc(Nc2ccc(Nc3nc(Cl)nc(Nc4cccc(S(=O)(=O)O)c4)n3)c(S(=O)(=O)O)c2)c2c1C(=O)c1ccccc1C2=O [REACTIVE BLUE 2]	–	–	Ki [4]: 0.52 µM
O=c1/c(=C/c2cccs2)sc2nc3ccccc3n12	≥ 10	43	–
C/C=c1\sc2nc3ccccc3n2c1=O	> 10	0	–
CC1CCN(c2cc(N3CCC(C)CC3)c([N+](=O)[O-])cc2/C=c2/sc3nc4ccccc4n3c2=O)CC1	8.56	–	–
O=c1/c(=C/c2ccc(Cl)cc2)sc2nc3ccccc3n12	> 10	32	–
COc1cc(/C=c2/sc3nc4ccccc4n3c2=O)ccc1OCc1nnn[nH]1	> 10	21	–
O=c1/c(=C/c2ccco2)sc2nc3ccccc3n12	0.981	–	–
CN(C)c1ccc(/C=c2\sc3nc4ccccc4n3c2=O)o1	4.21	–	–
O=c1/c(=C/c2ccc([N+](=O)[O-])o2)sc2nc3ccccc3n12	1.07	–	–
O=c1/c(=C/c2cccc(Oc3ccccc3)c2)sc2nc3ccccc3n12	> 10	13	–
O=c1/c(=C/c2ccc(Br)o2)sc2nc3ccccc3n12	0.61	–	–
O=c1/c(=C/c2ccccn2)sc2nc3ccccc3n12	> 10	39	–
O=c1/c(=C/c2ccccc2)sc2nc3ccccc3n12	> 10	31	–
O=C(/C(O)=C\c1ccc(I)o1)n1c(=S)[nH]c2ccccc21	–	–	Retention_time [5]: 3.8 min; Drug metabolism [6]: metabolite_detected
Cc1ccc(/C=c2\sc3nc4ccccc4n3c2=O)o1	2.11	–	–
O=c1/c(=C\c2ccccc2)sc2nc3ccccc3n12	> 10	10	–

From ChEMBL document CHEMBL3813632, “Thiazolo[3,2-a]benzimidazol-3(2H)-one derivatives: Structure-activity relationships of selective nucleotide pyrophosphatase/phosphodiesterase1 (NPP1) inhibitors” (Bioorg Med Chem, 2016)
